Patent US9499550B2 (BRISTOL-MYERS SQUIBB COMPANY, priority 2012, dated 2016)

Tests used:
[1] = tested on: HCV genotype 1b (Con1) replicon in HUH-7 cells; assay: HCV replicon luciferase reporter assay, genotype 1b; assay type: cell-based; conditions: Hepatitis C virus, Huh-7, 72 h, HCV genotype 1b replicon luciferase assay, 3 days incubation, range class, read-out: LE_1b (EC50, range)
Procedure, shortened: (§1)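 Replicon inhibition for both genotypes was measured as Renilla luciferase signal (EnduRen, 7.5 μM final, 2 h) after 3-day, 37° C exposure of replicon-bearing HUH-7 cells in 4% FCS DMEM, 0.5% DMSO. The 1b construct carries S1179I; the 1a H77 construct carries P1496L and S2204I. Twenty-point, 3-fold dilutions were fitted four-parametrically for EC50, and CC50 was taken from multiplexed Cell Titer-Blue.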

[2] = tested on: HCV genotype 1a (H77 strain) replicon in HUH-7 cells; assay: HCV replicon luciferase reporter assay, genotype 1a; assay type: cell-based; conditions: Hepatitis C virus, Huh-7, 72 h, HCV genotype 1a replicon luciferase assay, 3 days incubation, range class, read-out: LE_1a (EC50, range)
Procedure, shortened: as §1

Compound | EC50 [1] [nM] | EC50 [2] [nM]
CC(C)Oc1cc2c(Cl)cccc2c(O[C@@H]2C[C@H]3C(=O)N[C@]4(C(=O)NS(=O)(=O)C5(C)CC5)C[C@H]4/C=C\CC[C@H](C)C[C@@H](C)[C@H](NC(=O)OC(C)(C)C)C(=O)N3C2)n1 [Compound 1089, tert-butyl ((2R,6S,7R,9S,13aS,14aR,16aS,Z)-2-((5-chloro-3-isopropoxyisoquinolin-1-yl)oxy)-7,9-dimethyl-14a-(((1-methylcyclopropyl)sulfonyl)carbamoyl)-5,16-dioxo-1,2,3,5,6,7,8,9,10,11,13a,14,14a,15,16,16a-hexadecahydrocyclopropa[e]pyrrolo[1,2-a][1,4]diazacyclopentadecin-6-yl)carbamate] | < 5.46 | 4.82 to 103
CC(C)Oc1cc2c(Cl)cccc2c(O[C@@H]2C[C@H]3C(=O)N[C@]4(C(=O)NS(=O)(=O)C5(C)CC5)C[C@H]4/C=C\CC[C@@H](C)C[C@@H](C)[C@H](NC(=O)OC(C)(C)C)C(=O)N3C2)n1 [Compound 1090, tert-butyl ((2R,6S,7R,9R,13aS,14aR,16aS,Z)-2-((5-chloro-3-isopropoxyisoquinolin-1-yl)oxy)-7,9-dimethyl-14a-(((1-methylcyclopropyl)sulfonyl)carbamoyl)-5,16-dioxo-1,2,3,5,6,7,8,9,10,11,13a,14,14a,15,16,16a-hexadecahydrocyclopropa[e]pyrrolo[1,2-a][1,4]diazacyclopentadecin-6-yl)carbamate] | < 5.46 | < 5.46
CC(C)Oc1cc2c(Cl)cccc2c(O[C@@H]2C[C@H]3C(=O)N[C@]4(C(=O)NS(=O)(=O)C5CC5)C[C@H]4/C=C\CC[C@H](C)C[C@@H](C)[C@H](NC(=O)OC(C)(C)C)C(=O)N3C2)n1 [Compound 1091, tert-butyl ((2R,6S,7R,9S,13aS,14aR,16aS,Z)-2-((5-chloro-3-isopropoxyisoquinolin-1-yl)oxy)-14a-((cyclopropylsulfonyl)carbamoyl)-7,9-dimethyl-5,16-dioxo-1,2,3,5,6,7,8,9,10,11,13a,14,14a,15,16,16a-hexadecahydrocyclopropa[e]pyrrolo[1,2-a][1,4]diazacyclopentadecin-6-yl)carbamate] | < 5.46 | 4.82 to 103
CC(C)Oc1cc2c(Cl)cccc2c(O[C@@H]2C[C@H]3C(=O)N[C@]4(C(=O)NS(=O)(=O)C5CC5)C[C@H]4/C=C\CC[C@@H](C)C[C@@H](C)[C@H](NC(=O)OC(C)(C)C)C(=O)N3C2)n1 [Compound 1092, tert-butyl ((2R,6S,7R,9R,13aS,14aR,16aS,Z)-2-((5-chloro-3-isopropoxyisoquinolin-1-yl)oxy)-14a-((cyclopropylsulfonyl)carbamoyl)-7,9-dimethyl-5,16-dioxo-1,2,3,5,6,7,8,9,10,11,13a,14,14a,15,16,16a-hexadecahydrocyclopropa[e]pyrrolo[1,2-a][1,4]diazacyclopentadecin-6-yl)carbamate] | < 5.46 | < 5.46
CC(C)Oc1cc2c(Cl)cccc2c(O[C@@H]2C[C@H]3C(=O)N[C@]4(C(=O)NS(=O)(=O)C5CC5)C[C@H]4/C=C\CC[C@H](C)C[C@@H](C)[C@H](NC(=O)OC(C)(C)C(F)(F)F)C(=O)N3C2)n1 [Compound 1093, 1,1,1-trifluoro-2-methylpropan-2-yl((2R,6S,7R,9S,13aS,14aR,16aS,Z)-2-((5-chloro-3-isopropoxyisoquinolin-1-yl)oxy)-14a-((cyclopropylsulfonyl)carbamoyl)-7,9-dimethyl-5,16-dioxo-1,2,3,5,6,7,8,9,10,11,13a,14,14a,15,16,16a-hexadecahydrocyclopropa[e]pyrrolo[1,2-a][1,4]diazacyclopentadecin-6-yl)carbamate] | < 5.46 | 4.82 to 103
CC(C)Oc1cc2c(Cl)cccc2c(O[C@@H]2C[C@H]3C(=O)N[C@]4(C(=O)NS(=O)(=O)C5CC5)C[C@H]4/C=C\CC[C@@H](C)C[C@@H](C)[C@H](NC(=O)OC(C)(C)C(F)(F)F)C(=O)N3C2)n1 [Compound 1094, 1,1,1-trifluoro-2-methylpropan-2-yl((2R,6S,7R,9R,13aS,14aR,16aS,Z)-2-((5-chloro-3-isopropoxyisoquinolin-1-yl)oxy)-14a-((cyclopropylsulfonyl)carbamoyl)-7,9-dimethyl-5,16-dioxo-1,2,3,5,6,7,8,9,10,11,13a,14,14a,15,16,16a-hexadecahydrocyclopropa[e]pyrrolo[1,2-a][1,4]diazacyclopentadecin-6-yl)carbamate] | < 5.46 | < 5.46
C[C@H]1CC/C=C\[C@@H]2C[C@@]2(C(=O)NS(=O)(=O)C2CC2)NC(=O)[C@@H]2C[C@@H](Oc3nc(OCC(F)F)cc4c(Cl)cccc34)CN2C(=O)[C@@H](NC(=O)OC(C)(C)C(F)(F)F)[C@H](C)C1 [Compound 1095, 1,1,1-trifluoro-2-methylpropan-2-yl((2R,6S,7R,9S,13aS,14aR,16aS,Z)-2-((5-chloro-3-(2,2-difluoroethoxyl)isoquinolin-1-yl)oxy)-14a-((cyclopropylsulfonyl)carbamoyl)-7,9-dimethyl-5,16-dioxo-1,2,3,5,6,7,8,9,10,11,13a,14,14a,15,16,16a-hexadecahydrocyclopropa[e]pyrrolo[1,2-a][1,4]diazacyclopentadecin-6-yl)carbamate] | < 5.46 | 4.82 to 103
C[C@@H]1CC/C=C\[C@@H]2C[C@@]2(C(=O)NS(=O)(=O)C2CC2)NC(=O)[C@@H]2C[C@@H](Oc3nc(OCC(F)F)cc4c(Cl)cccc34)CN2C(=O)[C@@H](NC(=O)OC(C)(C)C(F)(F)F)[C@H](C)C1 [Compound 1096, 1,1,1-trifluoro-2-methylpropan-2-yl((2R,6S,7R,9R,13aS,14aR,16aS,Z)-2-((5-chloro-3-(2,2-difluoroethoxyl)isoquinolin-1-yl)oxy)-14a-((cyclopropylsulfonyl)carbamoyl)-7,9-dimethyl-5,16-dioxo-1,2,3,5,6,7,8,9,10,11,13a,14,14a,15,16,16a-hexadecahydrocyclopropa[e]pyrrolo[1,2-a][1,4]diazacyclopentadecin-6-yl)carbamate] | < 5.46 | < 5.46
C[C@H]1CC/C=C\[C@@H]2C[C@@]2(C(=O)NS(=O)(=O)C2(C)CC2)NC(=O)[C@@H]2C[C@@H](Oc3nc(OCC(F)F)cc4c(Cl)cccc34)CN2C(=O)[C@@H](NC(=O)OC(C)(C)C(F)(F)F)[C@H](C)C1 [Compound 1097, 1,1,1-trifluoro-2-methylpropan-2-yl((2R,6S,7R,9S,13aS,14aR,16aS,Z)-2-((5-chloro-3-(2,2-difluoroethoxyl)isoquinolin-1-yl)oxy)-7,9-dimethyl-14a-(((1-methylcyclopropyl)sulfonyl)carbamoyl)-5,16-dioxo-1,2,3,5,6,7,8,9,10,11,13a,14,14a,15,16,16a-hexadecahydrocyclopropa[e]pyrrolo[1,2-a][1,4]diazacyclopentadecin-6-yl)carbamate] | < 5.46 | 4.82 to 103
C[C@@H]1CC/C=C\[C@@H]2C[C@@]2(C(=O)NS(=O)(=O)C2(C)CC2)NC(=O)[C@@H]2C[C@@H](Oc3nc(OCC(F)F)cc4c(Cl)cccc34)CN2C(=O)[C@@H](NC(=O)OC(C)(C)C(F)(F)F)[C@H](C)C1 [Compound 1098, 1,1,1-trifluoro-2-methylpropan-2-yl((2R,6S,7R,9R,13aS,14aR,16aS,Z)-2-((5-chloro-3-(2,2-difluoroethoxyl)isoquinolin-1-yl)oxy)-7,9-dimethyl-14a-(((1-methylcyclopropyl)sulfonyl)carbamoyl)-5,16-dioxo-1,2,3,5,6,7,8,9,10,11,13a,14,14a,15,16,16a-hexadecahydrocyclopropa[e]pyrrolo[1,2-a][1,4]diazacyclopentadecin-6-yl)carbamate] | < 5.46 | < 5.46
C[C@H]1CC/C=C\[C@@H]2C[C@@]2(C(=O)NS(=O)(=O)C2CC2)NC(=O)[C@@H]2C[C@@H](Oc3nc(OCC(F)F)cc4c(Cl)cccc34)CN2C(=O)[C@@H](NC(=O)O[C@H](C)C(F)(F)F)[C@H](C)C1 [Compound 1099, (R)-1,1,1-trifluoropropan-2-yl ((2R,6S,7R,9S,13aS,14aR,16aS,Z)-2-((5-chloro-3-(2,2-difluoroethoxyl)isoquinolin-1-yl)oxy)-14a-((cyclopropylsulfonyl)carbamoyl)-7,9-dimethyl-5,16-dioxo-1,2,3,5,6,7,8,9,10,11,13a,14,14a,15,16,16a-hexadecahydrocyclopropa[e]pyrrolo[1,2-a][1,4]diazacyclopentadecin-6-yl)carbamate] | < 5.46 | < 5.46
C[C@@H]1CC/C=C\[C@@H]2C[C@@]2(C(=O)NS(=O)(=O)C2CC2)NC(=O)[C@@H]2C[C@@H](Oc3nc(OCC(F)F)cc4c(Cl)cccc34)CN2C(=O)[C@@H](NC(=O)O[C@H](C)C(F)(F)F)[C@H](C)C1 [Compound 1100, (R)-1,1,1-trifluoropropan-2-yl ((2R,6S,7R,9R,13aS,14aR,16aS,Z)-2-((5-chloro-3-(2,2-difluoroethoxyl)isoquinolin-1-yl)oxy)-14a-((cyclopropylsulfonyl)carbamoyl)-7,9-dimethyl-5,16-dioxo-1,2,3,5,6,7,8,9,10,11,13a,14,14a,15,16,16a-hexadecahydrocyclopropa[e]pyrrolo[1,2-a][1,4]diazacyclopentadecin-6-yl)carbamate] | < 5.46 | < 5.46
CC(C)Oc1cc2c(Cl)cccc2c(O[C@@H]2C[C@H]3C(=O)N[C@]4(C(=O)NS(=O)(=O)C5(C)CC5)C[C@H]4/C=C\CC[C@H](C)C[C@@H](C)[C@H](NC(=O)OC(C)(C)C(F)(F)F)C(=O)N3C2)n1 [Compound 1101, 1,1,1-trifluoro-2-methylpropan-2-yl((2R,6S,7R,9S,13aS,14aR,16aS,Z)-2-((5-chloro-3-isopropoxyisoquinolin-1-yl)oxy)-7,9-dimethyl-14a-(((1-methylcyclopropyl)sulfonyl)carbamoyl)-5,16-dioxo-1,2,3,5,6,7,8,9,10,11,13a,14,14a,15,16,16a-hexadecahydrocyclopropa[e]pyrrolo[1,2-a][1,4]diazacyclopentadecin-6-yl)carbamate] | 4.82 to 103 | 4.82 to 103
